Experimental data from publication PMC10987960.

How the values were obtained:
PEDV 3CL^pro [1] = molecular target: T1, PEDV 3CL^pro (Porcine epidemic diarrhea virus CV777, UniProt P0C6Y4); experiment: FRET protease assay, Dabcyl/Edans peptide; assay type: biochemical; conditions: read-out: Inhibitory rate
T1 construct: gene rep; mature nsp5 cut from replicase polyproteins pp1a/pp1ab; N- and C-terminal His tags (kept, no cleavage told), pET-28a(+), E. coli BL21(DE3), nickel column; docking used PDB 4XFQ
T1 sequence (P0C6Y4 2998-3299 limits assumed): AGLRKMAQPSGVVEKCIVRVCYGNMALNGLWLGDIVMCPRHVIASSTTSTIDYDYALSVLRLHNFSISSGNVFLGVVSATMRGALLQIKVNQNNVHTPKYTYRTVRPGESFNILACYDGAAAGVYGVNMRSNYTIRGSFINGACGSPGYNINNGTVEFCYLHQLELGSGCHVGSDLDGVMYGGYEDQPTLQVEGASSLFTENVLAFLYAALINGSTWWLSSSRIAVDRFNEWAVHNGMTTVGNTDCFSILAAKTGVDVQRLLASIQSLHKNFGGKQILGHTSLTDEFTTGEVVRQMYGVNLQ
Text: FRET protease assay, Dabcyl/Edans peptide on PEDV 3CL^pro

PEDV 3CL^pro [2] = molecular target: T1, PEDV 3CL^pro; experiment: FRET protease assay, Dabcyl/Edans peptide; assay type: biochemical

## O=c1c(O)c(-c2ccc(O)c(O)c2)oc2cc(O)c(O)c(O)c12 [compound 3, Quercetagetin]
PEDV 3CL^pro [1]
  inhibition at 20 µM: 91.8 ± 2.74%

## O=C(O[C@@H]1Cc2c(O)cc(O)cc2O[C@H]1c1cc(O)c(O)c(O)c1)c1cc(O)c(O)c(O)c1 [compound 1, (−)-Gallocatechin gallate]
PEDV 3CL^pro [1]
  inhibition at 20 µM: 97.65 ± 0.35%

## O=c1c(O)c(-c2ccc(O)c(O)c2)oc2cc(O)ccc12 [compound 2, Fisetin]
PEDV 3CL^pro [1]
  inhibition at 20 µM: 96.8 ± 2.64%

## O=c1cc(-c2ccccc2)oc2cc(O)c(O)c(O)c12 [Baicalein]
PEDV 3CL^pro [2]
  IC50: 9.5 ± 1.02 µM

## O=c1c(-c2ccc(O)cc2)coc2cc(O)ccc12 [compound 4, Daidzein]
PEDV 3CL^pro [1]
  inhibition at 20 µM: 91.26 ± 0.85%

## O=C(O)[C@H]1O[C@@H](Oc2cc3oc(-c4ccccc4)cc(=O)c3c(O)c2O)[C@H](O)[C@@H](O)[C@@H]1O [Baicalin]
PEDV 3CL^pro [2]
  IC50: 65.8 ± 6.57 µM

## O=c1c(O)c(-c2cc(O)c(O)c(O)c2)oc2cc(O)cc(O)c12 [compound 6, Myricetin]
PEDV 3CL^pro [1]
  inhibition at 20 µM: 75.3 ± 2.33%
